Test results: patent US20080183282A1, “Use of lipid conjugates for the coating of stents and catheters” (priority 2006, published 2008)

System: Naja Naja Snake Venom PLA2 enzyme
Test: In vitro fluorometric PLA2 inhibition assay
Assay type: biochemical
Conditions: 0.1 mg/ml
Description: The reaction of the PLA2 enzyme and the PLA2 enzyme substrate 2-(6-(7-nitrobenz-2-oxa-1,3diazol-4-yl)amino) hexanoyl-1-hexadecanoyl-sn-glycero-3-phosphocholine (NHGP) yields a product, which can be detected using a fluorometer. […] indicates inhibition of the PLA2 enzyme.
Compound XXII and Compound XXV were solubilized and diluted in D-PBS, and tested at final concentrations of […], 0.125, 0.25, 0.5 and 1 mg/ml. […] 1 mM NHGP was diluted in D-PBS, for a final concentration of 1 μM. The positive control, Mefenamic Acid (Sigma, M-4267), was tested at a final concentration of 0.1 mg/ml. The PLA2 enzyme is derived from the Naja Naja Snake Venom (Sigma, P6139) and tested at a final concentration of 5 Units/ml. The reaction was carried out in 200 μl solution and initiated by addition of substrate. Fluorescence was read immediately and then every minute for 30 minutes for a total of 30 readings. The fluorometer was set as follows: Excitation 450/50; Emission 530/25; Gain 50.

Cc1cccc(Nc2ccccc2C(=O)O)c1C [mefenamic acid, Mefenamic Acid]
inhibition of the PLA2 enzyme: 41%
